The target of one test is T1, hAR (Homo sapiens, UniProt P10275).
T1 sequence (P10275 1-920): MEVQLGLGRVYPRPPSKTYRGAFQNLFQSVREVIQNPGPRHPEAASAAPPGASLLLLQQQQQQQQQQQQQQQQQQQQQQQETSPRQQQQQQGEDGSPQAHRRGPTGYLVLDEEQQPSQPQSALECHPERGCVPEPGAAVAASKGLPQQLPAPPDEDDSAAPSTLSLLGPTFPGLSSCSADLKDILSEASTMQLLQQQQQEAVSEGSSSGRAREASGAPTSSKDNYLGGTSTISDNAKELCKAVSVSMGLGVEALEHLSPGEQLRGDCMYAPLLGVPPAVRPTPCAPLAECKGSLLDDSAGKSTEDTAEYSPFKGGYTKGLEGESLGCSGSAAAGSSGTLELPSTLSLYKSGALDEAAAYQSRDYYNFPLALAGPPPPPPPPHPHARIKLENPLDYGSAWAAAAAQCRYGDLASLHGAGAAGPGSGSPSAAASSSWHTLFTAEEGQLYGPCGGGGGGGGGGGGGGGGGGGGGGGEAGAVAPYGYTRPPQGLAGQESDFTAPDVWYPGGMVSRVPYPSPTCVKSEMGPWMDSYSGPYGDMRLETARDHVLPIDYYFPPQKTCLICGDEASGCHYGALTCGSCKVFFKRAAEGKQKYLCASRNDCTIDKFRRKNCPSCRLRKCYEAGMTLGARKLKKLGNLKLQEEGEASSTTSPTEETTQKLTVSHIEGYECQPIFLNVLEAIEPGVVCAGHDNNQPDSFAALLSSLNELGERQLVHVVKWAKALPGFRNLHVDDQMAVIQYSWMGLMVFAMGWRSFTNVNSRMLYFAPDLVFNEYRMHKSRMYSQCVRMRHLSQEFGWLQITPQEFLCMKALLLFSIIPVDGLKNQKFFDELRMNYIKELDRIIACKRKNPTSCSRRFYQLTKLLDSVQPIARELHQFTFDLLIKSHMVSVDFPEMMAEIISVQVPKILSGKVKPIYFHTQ
Kind of test: Competitive binding of 3H-DHT to baculovirus/Sf9 generated hAR extracts. The note with it: one hour at 4° C., mean of multiple tests. In a few lines: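 Baculovirus/Sf9-expressed hAR extract incubated with test compound, hydroxylapatite and 1 nM 3H-DHT tracer for 1 h at 4° C, then washed free of unbound tracer. Affinity given as concentration inhibiting half of maximal 3H-DHT binding.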

Another test deals with male Syrian hamsters. The test can be described thus: Animal Model for Inhibition of Sebum Production (hamster ear, HPLC of sebum lipids). The class given is in vivo, Syrian hamster. The note with it: twice daily, five days a week, 4 weeks; for % CE reduction: cholesterol ester vs vehicle control; for % WE reduction: wax ester vs vehicle control. On the procedure:
Luderschmidt et al describes an animal model for testing whether compounds are capable of modulating sebum secretion. Arch. Derm. Res. 258, 185-191 (1977). This model uses male Syrian hamsters, whose ears contain sebaceous glands. Based on binding data and cellular assay data, selected compounds were chosen for screening in this model. Those compounds included the products of Examples 1, 20, 81, 82, and 109.
Testing for sebum inhibition was carried out in the following manner. Male Syrian hamsters aged 9 to 10 weeks were introduced into the laboratory environment and acclimated for 2 weeks prior to use in the study. Each group consisted of 5 animals and run in parallel with vehicle and positive controls. Prior to administration, a sufficient quantity each compound was dissolved in 1 mL of a solvent consisting of ethanol, transcutol, and propylene glycol (60/20/20% v/v/v) to achieve the final concentration specified in Table VIII below.
Animals were dosed topically twice daily, five days a week, for 4 weeks. Each dose consisted of 25 micro liters of vehicle control or drug. The dose was applied to the ventral surfaces of both the right and left ears. All animals were sacrificed approximately 18-24 hours after the final dose. The right ears were collected from each animal and used for sebum analysis.
The ears were prepped for HPLC analysis in the following manner. One 8 mm distal biopsy punch was taken, just above the anatomical “V” mark in the ear to normalize the sample area. The punch was pulled apart. The ventral biopsy surface (the area where the topical dose was directly applied to the sebaceous glands) was retained for testing and the dorsal surface of the biopsy punch was discarded.
Tissue samples were blown with N2 gas and stored at −80° C. under nitrogen until HPLC analysis. In addition to ear samples, an aliquot of each drug and vehicle (at least 250 ul) was also stored at −80° C. for inclusion in the HPLC analysis.
HPLC analysis was carried out on an extract of the tissue sample. Tissue samples were contacted with 3 ml of solvent (a 4:1 admixture of 2,2,4-trimethylpentane and isopropyl alcohol). The mixture was shaken for 15 minutes and stored overnight at room temperature, protected from light. The next morning 1 milliliter of water was added to the sample and shaken for 15 minutes. The sample was then centrifuged at approximately 1500 rpm for 15 minutes. Two ml of the organic phase (top layer) was transferred to a glass vial, dried at 37° C., under nitrogen, for approximately 1 hour, and then lyophilized for approximately 48 hours. The samples were then removed from the lyophilizer and each vial was reconstituted with 600 μl of solvent A (trimethylpentane/tetrahydrofuran (99:1). The samples were then recapped and vortexed for 5 minutes.
200 μl of each sample was then transferred to a pre-labeled 200 μl HPLC vial with 200 μL glass inserts. The HPLC vials were placed in the autosampler tray for the Agilent 1100 series HPLC unit. The Agilent 1100 HPLC system consisted of a thermostated autosampler, a quaternary pump, a column heater, and an A/D interface module. All components were controlled by Agilent ChemStation software. A Waters Spherisorb S3W 4.6×100 mm analytical column was maintained at 30° C. by the Agilent column heater unit.
The HPLC autosampler was programmed to maintain the sample temperature at 20 C throughout the run.
10 uL of each sample was injected in triplicate into the column. Two solvents were used for the solvent gradient. Solvent A was an admixture of trimethylpentane and tetrahydrofuran (99:1). Solvent B was ethylacetate. The gradient utilized is described in the table below: […]
The Sedex 75 Evaporative Light Scattering Detector (ELSD) was operated at 45° C. with a gain of 5, and N2 pressure maintained at 3.1 bar. Analog signal obtained by the instrument was sent to the Agilent A/D interface module where it was converted to a digital output. […]

The mark [1] stands for this setting: IC50, concentration at which one half of maximum binding of 1 nM 3H-DHT to hAR is inhibited.
The mark [2] stands for this setting: concentration at which one half of maximum binding of 1 nM 3H-DHT to hAR is inhibited, read-out: IC50.

Consider seven molecules from patent publication US7674819B2 (Warner-Lambert Company LLC, priority 2005, dated 2010).

Read-outs that look alike come from different tables or passages of the source.

In general, IC50 refers to the midpoint of a concentration-inhibition curve. Take `CCCCN1CC(C)(C)C(Oc2ccc(C#N)c(C(F)(F)F)c2)C1=O` (single isomer, unassigned; (+)) [Example 20, (+)-4-(1-Butyl-4,4-dimethyl-2-oxo-pyrrolidin-3-yloxy)-2-trifluoromethyl-benzonitrile]: at hAR (setting [1]), the IC50 is 97 nM. Moreover, in the test with male Syrian hamsters (topical 2%), the “% CE reduction” value turned out to be 83%, the “Sum of WE & CE” value turned out to be 149 and the “% WE reduction” value is 66%.
On to `CCCS(=O)(=O)N1CC(C)(C)C(Oc2ccc(C#N)c(C(F)(F)F)c2)C1=O` (single isomer, unassigned; (+)) [Example 82, (+)-4-[4,4-Dimethyl-2-oxo-1-(propane-1-sulfonyl)-pyrrolidin-3-yloxy]-2-trifluoromethyl-benzonitrile], for which the 50% inhibitory concentration (IC50) on hAR (setting [1]) turned out to be 47 nM. In the test on male Syrian hamsters (topical 1%), the “% CE reduction” value came out at 72%, the “Sum of WE & CE” value was 129 and the “% WE reduction” value is 57%.
The like results for `CC[C@H](C)N1CC(C)(C)[C@@H](Oc2ccc(C#N)c(C(F)(F)F)c2)C1=O` [Example 1, (3R,S)-(+)-4-(1-sec-Butyl-4,4-dimethyl-2-oxo-pyrrolidin-3-yloxy)-2-trifluoromethyl-benzonitrile] were, in that order, 136 nM, 70%, 125 and 55%.
With `CCCN1CC(C)(C)C(Oc2ccc(C#N)c(C(F)(F)F)c2)C1=O` (stereo not shown) [Example 4, 4-(4,4-dimethyl-2-oxo-1-propyl-pyrrolidin-3-yloxy)-2-trifluoromethyl-benzonitrile], the concentration for half-maximal inhibition (IC50) at hAR (setting [1]) turned out to be 188 nM. In the test with male Syrian hamsters (topical 3%), the “% CE reduction” value is recorded as 76%, the “Sum of WE & CE” value was found to be 166 and the “% WE reduction” value is 90%.
For `CCCN1CC(C)(C)[C@@H](Oc2ccc(C#N)c(C(F)(F)F)c2)C1=O` [Example 4A, (+)-4-(1-Propyl-4,4-dimethyl-2-oxo-pyrrolidin-3-yloxy)-2-trifluoromethyl-benzonitrile (E2)], at hAR (setting [1]), the IC50 turned out to be 230 nM. In the test with male Syrian hamsters (topical 1%), the “% CE reduction” value is given as 76%, the “Sum of WE & CE” value came to 161 and the “% WE reduction” value turned out to be 85%.
As for `CC1(C)CN(S(C)(=O)=O)C(=O)C1Oc1ccc(C#N)c(C(F)(F)F)c1` (stereo not shown) [Example 81, 4-(1-methanesulfonyl-4,4-dimethyl-2-oxo-pyrrolidin-3-yloxy)-2-trifluoromethyl-benzonitrile], on hAR (setting [2]), the 50% inhibitory concentration (IC50) turned out to be 139 nM. Also, in the test with male Syrian hamsters (topical 1%), the “% CE reduction” value came out at 12%, the “Sum of WE & CE” value came out at 20 and the “% WE reduction” value was found to be 8%.
Taken in the same sequence, the figures for `CC(c1ccccc1)N1CC(C)(C)C(Oc2ccc(C#N)cc2Cl)C1=O` (stereo not shown) [Example 109] were 203 nM, 64%, 116 and 52%.
